Results from article PMC12022903, “Evaluation of drug-drug interaction between Suraxavir Marboxil (GP681) and itraconazole, and assessment of the impact of gene polymorphism” (Frontiers in Pharmacology, 2025).
“And” between values parts separate entries of the source, which are not always exact repeats. Equal values may be shown once. Read-outs that look alike come from different tables or passages of the source.

Experiments:
[1] = for GP1707D07 concentration: Period 1 GP681 monotherapy, individual subjects; for GP1707D07 concentration, Geo Mean / GP1707D07 concentration, Mean: plasma; for GP1707D07 concentration, Geo Mean: Geo Mean of subjects 301-312, Period 2 GP681-itraconazole co-administration; for GP1707D07 concentration, Mean: Mean of subjects 301-312, Period 2 GP681-itraconazole co-administration
[2] = design: method as in unpublished data; conditions: preclinical studies; ref unpublished data; cited from earlier work
cytochrome P450 (CYP) = tested on: cytochrome P450 (CYP); design: method as in unpublished data; conditions: preclinical studies; ref unpublished data; cited from earlier work
CYP3A4 = conditions: preclinical in vitro studies; cited from earlier work
MDR1 [3] = tested on: MDR1; design: method as in unpublished data; conditions: preclinical studies; ref unpublished data; cited from earlier work
liver enzymes = tested on: liver enzymes; design: method as in unpublished data; conditions: preclinical studies; ref unpublished data; cited from earlier work
MDR1 [4] = tested on: MDR1; design: method as in unpublished data; conditions: preclinical studies; ref unpublished data; cited from earlier work; remark: listed apart in the source
OATP1B1 = tested on: OATP1B1; design: method as in unpublished data; conditions: preclinical studies; ref unpublished data; cited from earlier work
OATP1B3 = tested on: OATP1B3; design: method as in unpublished data; conditions: preclinical studies; ref unpublished data; cited from earlier work
OAT1 = tested on: OAT1; design: method as in unpublished data; conditions: preclinical studies; ref unpublished data; cited from earlier work
OAT3 = tested on: OAT3; design: method as in unpublished data; conditions: preclinical studies; ref unpublished data; cited from earlier work
[5] = design: method as in unpublished data; conditions: after oral GP681; ref unpublished data; cited from earlier work

O=C1c2c(O)c(=O)ccn2N([C@@H]2c3ccccc3SCc3c2ccc(F)c3F)[C@@H]2COC3(CC3)CN12 [GP1707D07]
time from which GP1707D07 concentrations exceed the clinical effective concentration ([1]; GP681 20 mg + itraconazole, post-dose, threshold 6.87 ng/mL): 1 h | GP1707D07 concentration ([1]; 0.5h): 17.9 ng/mL and 0.6 ng/mL and 10.8 ng/mL and 2.8 ng/mL and 8.3 ng/mL and 1.4 ng/mL | GP1707D07 concentration ([1]; 1h): 23.5 ng/mL and 1.8 ng/mL and 16.5 ng/mL and 6.2 ng/mL and 10.1 ng/mL and 5.6 ng/mL | GP1707D07 concentration ([1]; 2h): 33.1 ng/mL and 4.5 ng/mL and 26.9 ng/mL and 7.2 ng/mL and 12.6 ng/mL and 9.4 ng/mL | GP1707D07 concentration ([1]; 3h): 44.4 ng/mL and 11.9 ng/mL and 25.1 ng/mL and 6.4 ng/mL and 14.2 ng/mL and 10.4 ng/mL | GP1707D07 concentration ([1]; 4h): 36.1 ng/mL and 13.4 ng/mL and 24.0 ng/mL and 5.7 ng/mL and 15.4 ng/mL and 11.0 ng/mL | GP1707D07 concentration ([1]; 5h): 30.8 ng/mL and 14.9 ng/mL and 20.4 ng/mL and 7.0 ng/mL and 15.5 ng/mL and 12.0 ng/mL | GP1707D07 concentration ([1]; 6h): 30.7 ng/mL and 18.0 ng/mL and 19.4 ng/mL and 7.0 ng/mL and 15.2 ng/mL and 11.0 ng/mL | GP1707D07 concentration ([1]; 8h): 24.5 ng/mL and 14.2 ng/mL and 17.9 ng/mL and 6.9 ng/mL and 13.5 ng/mL and 9.5 ng/mL | GP1707D07 concentration ([1]; 12h): 21.5 ng/mL and 12.6 ng/mL and 14.5 ng/mL and 6.6 ng/mL and 11.1 ng/mL and 8.8 ng/mL and 20.0 ng/mL | GP1707D07 concentration ([1]; 24h): 17.5 ng/mL and 10.3 ng/mL and 12.6 ng/mL and 5.4 ng/mL and 10.1 ng/mL and 6.3 ng/mL and 14.7 ng/mL | GP1707D07 concentration ([1]; 36h): 14.8 ng/mL and 8.1 ng/mL and 10.5 ng/mL and 4.4 ng/mL and 8.8 ng/mL and 5.4 ng/mL and 11.8 ng/mL | GP1707D07 concentration ([1]; 48h): 12.3 ng/mL and 6.9 ng/mL and 7.4 ng/mL and 3.9 ng/mL and 6.7 ng/mL and 5.1 ng/mL and 9.0 ng/mL | GP1707D07 concentration ([1]; 72h): 7.8 ng/mL and 5.1 ng/mL and 4.9 ng/mL and 3.2 ng/mL and 6.0 ng/mL and 3.6 ng/mL and 7.6 ng/mL | GP1707D07 concentration ([1]; 120h): 4.8 ng/mL and 3.5 ng/mL and 3.2 ng/mL and 1.7 ng/mL and 4.0 ng/mL and 2.1 ng/mL and 3.6 ng/mL | GP1707D07 concentration ([1]; 168h): 2.4 ng/mL and 2.0 ng/mL and 1.9 ng/mL and 1.1 ng/mL and 2.2 ng/mL and 1.3 ng/mL | GP1707D07 concentration ([1]; 264h): 1.3 ng/mL and 1.0 ng/mL and 0.8 ng/mL and 0.7 ng/mL | GP1707D07 concentration, Geo Mean ([1]; D26, 0.5h): 4.4 ng/mL | GP1707D07 concentration, Geo Mean ([1]; D26, 1h): 8.5 ng/mL | GP1707D07 concentration, Geo Mean ([1]; D26, 2h): 15.2 ng/mL | GP1707D07 concentration, Geo Mean ([1]; D26, 3h): 17.9 ng/mL | GP1707D07 concentration, Geo Mean ([1]; D26, 4h): 19.7 ng/mL | GP1707D07 concentration, Geo Mean ([1]; D26, 5h): 20.9 ng/mL | GP1707D07 concentration, Geo Mean ([1]; D26, 6h): 20.4 ng/mL | GP1707D07 concentration, Geo Mean ([1]; D26, 8h): 19.0 ng/mL | GP1707D07 concentration, Geo Mean ([1]; D26, 12h): 16.7 ng/mL | GP1707D07 concentration, Geo Mean ([1]; D26, 24h): 14.9 ng/mL | GP1707D07 concentration, Geo Mean ([1]; D26, 36h): 13.5 ng/mL | GP1707D07 concentration, Geo Mean ([1]; D26, 48h): 12.1 ng/mL | GP1707D07 concentration, Geo Mean ([1]; D26, 72h): 9.6 ng/mL | GP1707D07 concentration, Geo Mean ([1]; D26, 120h): 6.8 ng/mL | GP1707D07 concentration, Geo Mean ([1]; D26, 168h): 5.1 ng/mL | GP1707D07 concentration, Geo Mean ([1]; D26, 264h): 3.2 ng/mL | GP1707D07 concentration, Mean ([1]; D26, 0h): 0.0 ng/mL | GP1707D07 concentration, Mean ([1]; D26, 0.5h): 6.4 ng/mL | GP1707D07 concentration, Mean ([1]; D26, 1h): 10.4 ng/mL | GP1707D07 concentration, Mean ([1]; D26, 2h): 17.0 ng/mL | GP1707D07 concentration, Mean ([1]; D26, 3h): 19.7 ng/mL | GP1707D07 concentration, Mean ([1]; D26, 4h): 21.3 ng/mL | GP1707D07 concentration, Mean ([1]; D26, 5h): 22.0 ng/mL | GP1707D07 concentration, Mean ([1]; D26, 6h): 21.6 ng/mL | GP1707D07 concentration, Mean ([1]; D26, 8h): 20.0 ng/mL | GP1707D07 concentration, Mean ([1]; D26, 12h): 17.6 ng/mL | GP1707D07 concentration, Mean ([1]; D26, 24h): 15.6 ng/mL | GP1707D07 concentration, Mean ([1]; D26, 36h): 14.2 ng/mL | GP1707D07 concentration, Mean ([1]; D26, 48h): 12.5 ng/mL | GP1707D07 concentration, Mean ([1]; D26, 72h): 10.1 ng/mL | GP1707D07 concentration, Mean ([1]; D26, 120h): 7.1 ng/mL | GP1707D07 concentration, Mean ([1]; D26, 168h): 5.4 ng/mL | GP1707D07 concentration, Mean ([1]; D26, 264h): 3.3 ng/mL | average ratio of GP1707D07 concentration at each time point (Period 2: Period 1) ([1]; within 24 h post-dose): 1.7–2.0 | route of excretion [2]: mainly excreted in feces | tissue distribution [2]: widely distributed across various tissues | metabolizing enzymes (cytochrome P450 (CYP)): mainly metabolized by cytochrome P450 (CYP) 1A2, CYP 2C8, and CYP 3A4 | substrate of CYP3A4 (CYP3A4): is a substrate of CYP3A4 | substrate for the MDR1 transporter (MDR1 [3]): Neither Suraxavir Marboxil (GP681) nor its metabolite, GP1707D07, serves as substrates | inhibition or induction of liver enzymes (liver enzymes): do not significantly inhibit or induce liver enzymes | inhibition of transport activity of MDR1 (MDR1 [4]): nor do they inhibit the transport activity | inhibition of transport activity of OATP1B1 (OATP1B1): nor do they inhibit the transport activity | inhibition of transport activity of OATP1B3 (OATP1B3): nor do they inhibit the transport activity | inhibition of transport activity of OAT1 (OAT1): nor do they inhibit the transport activity | inhibition of transport activity of OAT3 (OAT3): nor do they inhibit the transport activity | share of the total radioactivity in serum [5]: approximately 95.4%
